Reference: patent US10660910B2, “Use of sedoheptulose for prevention or treatment of inflammation” (C7 SUGAR GMBH, priority 2013, dated 2020)

Columns and labels:
Assay type in all cases: cell-based, mouse
mature murine adipocytes = test: Mature murine adipocytes ceiling culture, cytokine mRNA by RT-PCR; conditions: three days in GFS vs GF media
Description: Anterior and posterior subcutaneous adipose tissue and epididymal white adipose tissue was isolated from transgenic CARKL-mice and wild-type littermate controls. Adipose tissue was digested as described above for the human sample. After centrifugation, the layer of floating mature adipocytes was removed and re-centrifuged at 100 rcf for 10 minutes. 150 μL, of packed adipocytes were cultured under a floating coverslip in six-well plates, in DMEM/F12, 15% calf serum (PAA). 24 hours after isolation, the wells were washed twice with PBS and the medium was exchanged to DMEM/F12 with a total carbohydrate load of 3 g/L, containing 1.5 g/L glucose and fructose, or 1 g/L each of glucose, fructose and sedoheptulose, respectively. Three days later, the cells were harvested for RNA isolation using TRIreagent (Sigma).
Briefly, total RNA was extracted and reverse-transcribed using commercial kits (QIAGEN, Applied Biosystems). Quantitative real-time PCRs were performed on an AbiPRISM 7900HT real-time cycler using iTaq SYBR Green Supermix with ROX (BioRad) to measure CARKL, adiponectin, UCP-1, TNFa, IL-6, MCP-1, and beta-actin expression as previously described (Haschemi et al., Cell Metab. 15 (2012), 813-826). Expression of target gene was normalized to beta-actin expression. Relative expression of target gene was calculated by the delta-delta CT method.

[1] = system: Glucose-6-phosphate dehydrogenase (G6PD) in hepatocytes; test: Glucose-6-phosphate dehydrogenase activity assay (enzyme histochemistry) in hepatocytes; conditions: WT cells incubated in cell culture media with sedoheptulose; compared with phenotype of CARKL overexpressing cells; data not shown
Description: Hepatocytes were isolated from male wild-type and CARKL overexpressing mice after the mice were sacrificed by hepatic in situ collagenase perfusion. After perfusion, the liver was quickly removed, minced, and filtered through a cell strainer (Fisher Scientific, Inc) into a 50 ml sterile tube. Hepatocytes in the resulting filtrate were purified from the nonparenchymal cells by centrifugation steps. The isolated hepatocytes were seeded into plates at a concentration of 0.25×10^6/ml in respective DMEM-media containing 10% FBS and indicated carbohydrate mixes at 3 g/L (glucose and fructose (GF), or glucose, fructose and sedoheptulose (GFS)) at least two days before experiments were performed. Cells were grown on polystyrene vessel tissue culture treated glass slides, snap frozen in liquid nitrogen and kept at −80° C. The enzyme histochemical procedure was based on the tetrazolium salt method as described by Van Noorden and Frederiks. […] The medium was freshly prepared immediately before incubation. Control reactions additionally contained 40 mM glucosamine-6-phosphate. Cells were incubated at room temperature for 15 minutes under continuous mixing by orbital shaker. After incubation, cells were washed 3×5 minutes in […] phosphate buffered saline, dried, and mounted in glycerol gelatin, and photographed within one day at ×10 magnification.

osteoclasts = test: In vitro bone resorption assay
Description: Mouse bones were isolated from male wild-type and CARKL overexpressing mice and bone marrow wash flushed, washed and cleared from redblood cells by lysis, and subsequently differentiated in DMEM containing 25 mM glucose and 20 ng/ml M-CSF. After 4 days, cells for osteoclast differentiation were harvested and seeded in corning osteo assay plates with differentiation media (see below), and for primary bone marrow derived macrophages (BMDM) the medium was renewed and further supplemented with M-SCF for two days. Differentiated BMDM were then seeded in respective DMEM-media containing 10% FBS and indicated carbohydrate mixes at 3 g/L (glucose and fructose (GF), or glucose, fructose and sedoheptulose (GFS)) at least two days before experiments were performed. Osteoclast precursor cells (bone marrow cells treated with 20 ng/ml M-CSF for 4 days) were plated in 24-well Corning Osteo Assay plate in the presence of 10 ng/ml M-CSF and 100 ng/ml RANKL in alpha-MEM medium containing 10% FBS and 3 g/L either glucose and fructose (GF), or glucose, fructose, and sedoheptulose (GFS). The Medium was renewed every third day. […] Each well was entirely photographed by TissueFax with an ×20 objective and all visible resorption pits were counted and analysed blinded.

[2] = system: LPS-induced activated primary macrophages; test: LPS-induced cytokine secretion by bone marrow derived macrophages (ELISA); conditions: LPS 100 ng/ml, GFS vs GF media
Description: FIG. 3: (A-E) Primary human adipocytes were obtained by differentiation of the stromal vascular cell fraction in the presence of glucose and fructose (GF, 1.5 g/L of each sugar; total carbohydrates 3 g/L) or sedoheptulose supplemented media, which was termed GFS (1 g/L of each sugar; total carbohydrates 3 g/L), for eight days. Subsequently mRNA levels of (A) CARKL, (B) adiponectin and (C) uncoupling protein 1 (UCP-1) was assessed by RT-PCR and compared between the groups. (D) Cellular oxygen consumption rates (OCR) and (E) extracellular acidification rates (ECAR) of adipocytes were recorded in the presence of indicated carbohydrate-mix (mean+/−S.D., n=9-11). […] Secretion of (K) TNFa and (L) IL-6 cytokines over the period of two days was measured by ELISA in the supernatant of bone marrow derived macrophages. LPS-induced (100 ng/ml) secretion of (M) TNFa 2 hrs after activation and (N) IL-6 6 hrs after activation in the respective media by macrophages was also measured by ELISA. […]

O=C(CO)[C@@H](O)[C@H](O)[C@H](O)[C@H](O)CO [sedoheptulose, Sedoheptulose]
TNFa mRNA (mature murine adipocytes; FIG. 3F): less | IL-6 mRNA (mature murine adipocytes; FIG. 3G): less | G6PD activity distribution (re-localization of G6PD, reduced activity in the inner space of the cells) [1]: same phenotype | pit formation by osteoclasts (osteoclasts; 7 days in Corning Osteo Assay plates, GFS vs GF media, FIG. 5C): reduced | larger resorption-pits (osteoclasts; WT osteoclasts in GF or GFS media, FIG. 5D): found only in the absence of sedoheptulose | reduction of LPS-induced TNFa secretion ([2]; 2 hrs after activation, FIG. 3M): approximately 40% | LPS-induced IL-6 secretion ([2]; 6 hrs after activation, FIG. 3N): comparable levels as GF treated macrophages
